Results from BindingDB's records for PubMed 34726055 (Central University of Punjab, 2022).

Molecular target: Pyruvate kinase PKLR (Homo sapiens) (UniProt P30613)
Assay: Inhibition of human erythrocytes pyruvate kinase

Chain of Pyruvate kinase PKLR (Homo sapiens) (P30613 whole entry, looked up): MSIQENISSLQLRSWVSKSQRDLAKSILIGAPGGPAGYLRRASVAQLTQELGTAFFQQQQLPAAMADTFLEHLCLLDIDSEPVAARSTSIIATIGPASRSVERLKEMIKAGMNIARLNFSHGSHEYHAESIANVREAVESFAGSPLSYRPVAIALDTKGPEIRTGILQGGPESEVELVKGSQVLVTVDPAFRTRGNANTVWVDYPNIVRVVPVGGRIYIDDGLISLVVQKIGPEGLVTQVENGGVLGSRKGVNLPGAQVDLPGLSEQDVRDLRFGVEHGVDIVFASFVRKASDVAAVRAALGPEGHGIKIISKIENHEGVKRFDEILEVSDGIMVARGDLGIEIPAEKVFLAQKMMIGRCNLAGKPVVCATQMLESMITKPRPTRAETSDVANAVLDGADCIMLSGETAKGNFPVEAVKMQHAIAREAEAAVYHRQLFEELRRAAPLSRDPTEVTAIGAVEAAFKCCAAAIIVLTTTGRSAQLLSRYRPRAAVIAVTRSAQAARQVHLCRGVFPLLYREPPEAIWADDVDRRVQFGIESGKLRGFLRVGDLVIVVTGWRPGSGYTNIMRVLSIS

An IC50 of 8 µM was found for `O=C(O)c1ccc(SC2=NS(=O)(=O)c3ccccc32)cc1` in this work.
